What was measured:
Format in all cases: cell-based, mouse
[1] = system: FAK; experiment: pFAK397 western blot in cultured podocytes -/+ TAE226; conditions: 20 μM TAE226, podocytes on placental laminin
Protocol: Basal Lamina and −/+ TAE226 pFAK^397 Western Blots. 10 day differentiated GEC's were cultured in 0.5% FCS for 2 days and plated onto tissue culture dishes previously coated with 50 μg/ml Collagen Type 1 Rat Tail (BD Biosciences) and 2 μg/cm^2 Placental Laminin (Sigma) in 0.1% BSA containing media. For Basal Lamina experiment, additional dishes were coated with Collagen Type 1 and 1.25 μg/cm^2 EHS Laminin (BD Biosciences) or […] Merosin (Chemicon, Temecula Calif.). For −/+ TAE266 experiment, 20 μM TAE226 was included in the media. Protein was collected 15 hours later in M-PER (Thermo Scientific) as above and Western Blot run as described below.
(§1) Immunoblotting. Ten to fifteen micrograms, of cellular protein, was resolved in a 10% SDS-PAGE and then electrotransfered to PVDF membrane. The membranes were cut in half and the upper half (250 kDa to 75 kDa) used for pFAK/tFAK immunoblotting while the bottom half used for β-actin immunoblotting (loading control). Conditions for pFAK detection: the membrane was blocked in milk blocking solution (5% milk containing 0.2% Tween-20 in PBS) for 1 hour at room temperature with constant shaking and incubated overnight at 4° C. with anti-pFAK 1:1,000 in BSA blocking solution (1% BSA containing 0.2% Tween-20 in PBS). […]

[2] = system: FAK; experiment: pFAK397 western blot in primary mesangial cells with TAE226; conditions: 0.5 and 1.0 μM TAE226, five hours
Protocol: Primary Mesangial Cells were derived and characterized as previously described (Cosgrove et al., 2008, Am J Pathol; 172: 761-773). Three independent Transwell Migration Assays were performed using 0.5 μM TAE226 as previously described. For pFAK Western Blot^397, cells were maintained on 1% FCS-containing media for two days, overnight in 0.1% BSA (Fraction V, Roche Diagnostics, Mannheim, Germany) and TAE226 added to 0.5 and 1.0 μM. After five hours protein was collected in M-PER™ (Thermo Scientific, Rockford, Ill.) containing Protease Inhibitor Cocktail P8340 at 1:100 (Sigma, St. Louis, Mo.), 5 mM Sodium Fluoride (Sigma), and 2 mM Sodium Orthovanadate (Sigma) and Western Blots run as described below.
as §1

[3] = system: primary cultured mesangial cells; experiment: Transwell Migration Assay of primary mesangial cells with TAE226; conditions: 0.5 μM TAE226; relative to untreated cells
Protocol: MES Migration (insert). Transwell cell migration assays were performed as described by Daniel et al. (Daniel et al., 2012, Lab Invest; 92(6): 812-26) with some modifications. 8 micron, 24-well plate control inserts (BD Bioscience, Bedford, Mass.) were coated overnight at 4° C. with 100 μl of 0.1% gelatin/PBS then washed 1× with PBS. MES cultures were incubated in 1% FCS overnight, then 0.05% BSA-containing media for at least 8 hours, washed 1× with PBS and carefully tryspinized to ensure a single cell suspension and limited “clumping” of cells. After serum-neutralization and subsequent centrifugation, ˜100,000 cells were resuspended in 1.5 mls of 0.05% BSA media containing activators/inhibitors. The wells of a 24-well plate were filled with 0.75 mls of 10% FCS-containing media plus activators/inhibitors (excluding 0.05% BSA control well). 0.5 ml of cell-suspension was loaded into the gelatin-coated insert and the insert placed in a well. Wells were visually inspected for bubbles beneath insert and equal distribution of cell-suspension. Cells were allowed to migrate overnight (˜18 hrs). […] Inserts were air dried and counted at 100× magnification. Five fields were counted on each insert including one center and four periphery areas. Data was expressed as relative to 10% FCS control well (set equal to one). […]

**Q.** `CNC(=O)c1ccccc1Nc1nc(Nc2ccc(N3CCOCC3)cc2OC)ncc1Cl` [TAE226] was tested. Which “Activation state of FAK (pFAK397) in cultured podocytes” value [1] did it give?
**A.** reduced

**Q.** And the “pFAK activation in mesangial cells” value [2]?
**A.** blocked pFAK activation in a dose-dependent manner

**Q.** What about the “Cell migratory potential of mesangial cells” value [3] of the same molecule?
**A.** significantly reduced

From patent publication US9719981B2, “RAC1 inhibitors for the treatment of alport glomerular disease” (Father Flanagan's Boys' Home, priority 2012, dated 2017)
